Measurements reported in patent US12577256B2, “Aryl receptor modulators and methods of making and using the same” (Nogra Pharma Limited, priority 2014, dated 2026).

Experiments:
[1] = biological target: T1, AhR (Homo sapiens, UniProt P35869); conditions: cited from earlier work
T1 sequence (P35869 11-848): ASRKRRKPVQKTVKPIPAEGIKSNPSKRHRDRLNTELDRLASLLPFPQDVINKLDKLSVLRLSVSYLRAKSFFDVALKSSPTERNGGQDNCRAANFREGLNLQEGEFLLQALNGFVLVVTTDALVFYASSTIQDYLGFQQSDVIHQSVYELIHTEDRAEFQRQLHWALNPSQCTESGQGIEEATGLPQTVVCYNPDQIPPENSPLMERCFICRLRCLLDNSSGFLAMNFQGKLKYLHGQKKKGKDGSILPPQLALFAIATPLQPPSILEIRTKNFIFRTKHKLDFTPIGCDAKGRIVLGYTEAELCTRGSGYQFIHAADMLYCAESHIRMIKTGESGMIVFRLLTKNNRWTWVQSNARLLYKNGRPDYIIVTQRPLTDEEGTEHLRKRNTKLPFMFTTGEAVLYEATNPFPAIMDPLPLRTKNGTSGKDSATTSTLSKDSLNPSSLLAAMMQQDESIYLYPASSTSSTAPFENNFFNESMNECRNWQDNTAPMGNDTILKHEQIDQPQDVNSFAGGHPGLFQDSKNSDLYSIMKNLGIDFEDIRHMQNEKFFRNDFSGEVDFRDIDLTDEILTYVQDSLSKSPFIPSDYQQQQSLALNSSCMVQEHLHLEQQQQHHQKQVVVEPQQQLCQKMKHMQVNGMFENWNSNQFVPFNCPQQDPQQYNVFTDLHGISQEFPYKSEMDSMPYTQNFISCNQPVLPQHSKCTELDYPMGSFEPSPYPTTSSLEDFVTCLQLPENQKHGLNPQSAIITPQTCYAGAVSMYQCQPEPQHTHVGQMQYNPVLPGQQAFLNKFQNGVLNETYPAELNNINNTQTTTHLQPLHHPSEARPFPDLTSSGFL

[2] = tested on: IL-22; experiment: IL-22 RNA expression in anti-CD3/anti-CD28 stimulated PBMC (real-time PCR); assay type: cell-based, human; conditions: anti-CD3/anti-CD28, 100, 200 or 400 nM compound, 24 hours, RNA (FIG. 24)
Description: (§1) Peripheral blood mononuclear cells (PBMC), isolated from 3 healthy subjects, were isolated by density gradient centrifugation (Lymphoprep; Nycomed Pharma) from 5 mL heparinized blood samples. PBMC were resuspended in RPMI 1640 supplemented with 10% fetal calf serum at a concentration of 1×10^6 cells/mL, cultured in 24-well culture plates (Falcon Plastic) and stimulated with medium alone or anti-CD3/anti-CD28 (Miltenyi Biotec) antibodies with or without 100, 200, or 400 nM of AhR binding compounds (02, 04, 13, 15, 17, or 24), dimethyl sulfoxide or 6-formylindolo[3,2-b]cathazole (Ficz, 200 nM). Total RNA was extracted from cells cultured for 24 hours. For RNA preparation, cells were lysed in 1 mL of guanidium thiocyanate buffer and subjected to phenol/chloroform extraction using TRizol reagent (Invitrigen). The sample obtained was quantitated by absothance at 260 nm and complementary DNA (cDNA) was synthetized from […] of total RNA. cDNA was amplified using the following conditions: denaturation for 1 minute at 95° C.; annealing for 30 seconds at 58° C. for IFN-γ, and 60° C. for f3-actin; and followed by 30 seconds of extension at 72° C. […] IL-22 was evaluated using commercially available TaqMan probes (Applied Biosystems). β-actin (forward (SEQ ID NO. 3) 5′-[…]-3′, reverse (SEQ ID NO.4) 5′-[…]-3′) was used as a housekeeping gene. Gene expression was calculated using the AACt algorithm.

[3] = tested on: IFN-γ; experiment: IFN-γ RNA expression in anti-CD3/anti-CD28 stimulated PBMC (real-time PCR); assay type: cell-based, human; conditions: anti-CD3/anti-CD28, 100, 200 or 400 nM compound, 24 hours, RNA (FIG. 24)
Description: as §1

[4] = cited from earlier work

SMILES | activation of the AhR [1] | production of IL-22 [2] | production of IFN-γ [3] | anti-inflammatory properties in vivo [4]
Cc1oncc1C(=O)Nc1ccc(C(F)(F)F)cc1 [Leflunomide] | activates |  |  | 
COc1ccc(Cc2nc3ccc(C(F)(F)F)cc3s2)cc1OC [compound 15, 2-(3,4-dimethoxybenzyl)-6-(trifluoromethyl)benzo[d]thiazole] |  | strongly increases | decreasing | 
C=CCn1nc(-c2ccc(OC)c(OC)c2)c2cccc(C(F)(F)F)c21 [SGA 360] |  |  |  | exhibits anti-inflammatory properties in vivo
COc1cc(Nc2nc3ccccc3[nH]2)cc(OC)c1OC [compound 17, N (3,4,5-trimethoxyphenyl)-1H-benzo[d]imidazol-2-amine] |  | strongly increases | decreasing | 
